Data as given in ChEMBL document CHEMBL5518185, “Design, synthesis and antitumor activity of 4-arylamine substituted pyrimidine derivatives as noncovalent EGFR inhibitors overcoming C797S mutation” (Eur J Med Chem, 2024).
pIC50: −log10 of the molar value. Calls of active or inactive are those of the source. No cut-off for these calls is given here.

How the values were obtained:
[1] = target: Proto-oncogene tyrosine-protein kinase ROS (Homo sapiens) (UniProt P08922); assay: Inhibition of ROS (unknown origin) by HTRF assay relative to control; details: concentration not given here
[2] = target: Tyrosine-protein kinase BTK (Homo sapiens) (UniProt Q06187); assay: Inhibition of BTK (unknown origin) by HTRF assay relative to control; details: concentration not given here
[3] = Cytotoxicity against human 2BS cells assessed as inhibition of cell viability measured after 72 hrs by MTT assay; format: toxicity, cell-based
[4] = test system: HCC827; assay: Induction of apoptosis in human HCC827 cells assessed as early apoptotic cells at 100 nM measured after 24 hrs by annexin V/PI staining based flu cytometry analysis (reference value: 3.2%); format: functional
[5] = test system: NCI-H1975; assay: Antiproliferative activity against human NCI-H1975 cells assessed as inhibition of cell growth measured after 72 hrs by MTT assay; format: functional, cell-based; details: NCI-H1975, 72 h
[6] = target: Serine/threonine-protein kinase mTOR (Homo sapiens) (UniProt P42345); assay: Inhibition of mTOR (unknown origin) by HTRF assay relative to control; details: concentration not given here
[7] = target: Mast/stem cell growth factor receptor Kit (Homo sapiens) (UniProt P10721); assay: Inhibition of c-kit (unknown origin) by HTRF assay relative to control; details: concentration not given here
[8] = Toxicity in BALB/c nude mouse assessed as effect on body weight loss at 10 to 50 mg/kg/day, po measured every three days for 21 days; format: organism-based; details: in vivo, 504 h, dose 10-50 mg/kg/day, time 21 day
[9] = target: T1, Epidermal growth factor receptor (Homo sapiens, UniProt P00533); details: dose 100.0 nM
Description: Inhibition of EGFR phosphorylation (unknown origin) at 100 nM by Western blotting analysis

[10] = test system: HCC827; assay: Induction of apoptosis in human HCC827 cells assessed as late apoptotic cells at 10 nM measured after 24 hrs by annexin V/PI staining based flu cytometry analysis (reference value: 5.50%); format: functional
[11] = species on record: Homo sapiens; assay: Inhibition of AKT phosphorylation (unknown origin) at 100 nM by Western blotting analysis
[12] = target: Epidermal growth factor receptor (Homo sapiens, UniProt P00533, L858R/T790M); assay: Inhibition of EGFR L858R/T790M (unknown origin) preincubated for 10 mins followed by substrate addition and measured after 50 mins in presence of ATP by HTRF assay
[13] = test system: HCC827; assay: Induction of cell cycle arrest in human HCC827 cells assessed as accumulation of cells at G2/M phase at 100 nM measured after 24 hrs by PI staining based flow cytometry analysis (reference value: 16.83%); format: functional
[14] = test system: HCC827; assay: Induction of apoptosis in human HCC827 cells assessed as early apoptotic cells at 30 nM measured after 24 hrs by annexin V/PI staining based flu cytometry analysis (reference value: 3.2%); format: functional
[15] = test system: HCC827; assay: Induction of cell cycle arrest in human HCC827 cells assessed as accumulation of cells at G0/G1 phase at 100 nM measured after 24 hrs by PI staining based flow cytometry analysis (reference value: 54.36%); format: functional
[16] = test system: HCC827; assay: Inhibition of cell migration in human HCC827 cells at 10 to 100 nM measured upto 24 hrs by scratch-wound assay; format: functional, cell-based; details: dose 10-100 nM
[17] = test system: HCC827; assay: Induction of apoptosis in human HCC827 cells assessed as viable cells at 10 nM measured after 24 hrs by annexin V/PI staining based flu cytometry analysis (reference value: 84.0%); format: functional; details: read-out: Activity
[18] = test system: HCC827; assay: Induction of apoptosis in human HCC827 cells assessed as activation of cleaved-PARP level measured after 48 hrs by Western blot analysis; format: functional, cell-based; details: dose 10-400 nM
[19] = test system: HCC827; assay: Induction of apoptosis in human HCC827 cells assessed as activation of cleaved-caspase-3 level measured after 48 hrs by Western blot analysis; format: functional, cell-based; details: dose 10-400 nM
[20] = target: Proto-oncogene tyrosine-protein kinase Src (Homo sapiens) (UniProt P12931); assay: Inhibition of Src (unknown origin) by HTRF assay relative to control; details: concentration not given here
[21] = test system: HCC827; assay: Inhibition of colony formation in human HCC827 cells at 10 to 30 nM measured after 14 days by crystal violet staining based analysis; format: functional, cell-based; details: dose 10-30 nM, time 14.0 day
[22] = test system: HCC827; assay: Induction of cell cycle arrest in human HCC827 cells assessed as accumulation of cells at G0/G1 phase at 10 nM measured after 24 hrs by PI staining based flow cytometry analysis (reference value: 54.36%); format: functional
[23] = target: T1, Epidermal growth factor receptor; assay: Inhibition of wild type EGFR (unknown origin) preincubated for 10 mins followed by substrate addition and measured after 50 mins in presence of ATP by HTRF assay
[24] = species on record: Homo sapiens; assay: Inhibition of VGFR (unknown origin) by HTRF assay relative to control; details: concentration not given here
[25] = test system: HCC827; assay: Induction of cell cycle arrest in human HCC827 cells assessed as accumulation of cells at G2/M phase at 30 nM measured after 24 hrs by PI staining based flow cytometry analysis (reference value: 16.83%); format: functional
[26] = target: Tyrosine-protein kinase ABL1 (Homo sapiens) (UniProt P00519); assay: Inhibition of Abl (unknown origin) by HTRF assay relative to control; details: concentration not given here
[27] = test system: HCC827; assay: Induction of apoptosis in human HCC827 cells assessed as early apoptotic cells at 10 nM measured after 24 hrs by annexin V/PI staining based flu cytometry analysis (reference value: 3.2%); format: functional
[28] = test system: HCC827; assay: Induction of apoptosis in human HCC827 cells assessed as necrotic cells at 10 nM measured after 24 hrs by annexin V/PI staining based flu cytometry analysis (reference value: 7.34%); format: functional
[29] = species on record: Homo sapiens; assay: Inhibition of Akt (unknown origin) by HTRF assay relative to control; details: concentration not given here
[30] = target: Epidermal growth factor receptor (Homo sapiens, UniProt P00533, EX19DEL/T790M); assay: Inhibition of EGFR Del19/T790M (unknown origin) preincubated for 10 mins followed by substrate addition and measured after 50 mins in presence of ATP by HTRF assay

T1 sequence (P00533 whole entry): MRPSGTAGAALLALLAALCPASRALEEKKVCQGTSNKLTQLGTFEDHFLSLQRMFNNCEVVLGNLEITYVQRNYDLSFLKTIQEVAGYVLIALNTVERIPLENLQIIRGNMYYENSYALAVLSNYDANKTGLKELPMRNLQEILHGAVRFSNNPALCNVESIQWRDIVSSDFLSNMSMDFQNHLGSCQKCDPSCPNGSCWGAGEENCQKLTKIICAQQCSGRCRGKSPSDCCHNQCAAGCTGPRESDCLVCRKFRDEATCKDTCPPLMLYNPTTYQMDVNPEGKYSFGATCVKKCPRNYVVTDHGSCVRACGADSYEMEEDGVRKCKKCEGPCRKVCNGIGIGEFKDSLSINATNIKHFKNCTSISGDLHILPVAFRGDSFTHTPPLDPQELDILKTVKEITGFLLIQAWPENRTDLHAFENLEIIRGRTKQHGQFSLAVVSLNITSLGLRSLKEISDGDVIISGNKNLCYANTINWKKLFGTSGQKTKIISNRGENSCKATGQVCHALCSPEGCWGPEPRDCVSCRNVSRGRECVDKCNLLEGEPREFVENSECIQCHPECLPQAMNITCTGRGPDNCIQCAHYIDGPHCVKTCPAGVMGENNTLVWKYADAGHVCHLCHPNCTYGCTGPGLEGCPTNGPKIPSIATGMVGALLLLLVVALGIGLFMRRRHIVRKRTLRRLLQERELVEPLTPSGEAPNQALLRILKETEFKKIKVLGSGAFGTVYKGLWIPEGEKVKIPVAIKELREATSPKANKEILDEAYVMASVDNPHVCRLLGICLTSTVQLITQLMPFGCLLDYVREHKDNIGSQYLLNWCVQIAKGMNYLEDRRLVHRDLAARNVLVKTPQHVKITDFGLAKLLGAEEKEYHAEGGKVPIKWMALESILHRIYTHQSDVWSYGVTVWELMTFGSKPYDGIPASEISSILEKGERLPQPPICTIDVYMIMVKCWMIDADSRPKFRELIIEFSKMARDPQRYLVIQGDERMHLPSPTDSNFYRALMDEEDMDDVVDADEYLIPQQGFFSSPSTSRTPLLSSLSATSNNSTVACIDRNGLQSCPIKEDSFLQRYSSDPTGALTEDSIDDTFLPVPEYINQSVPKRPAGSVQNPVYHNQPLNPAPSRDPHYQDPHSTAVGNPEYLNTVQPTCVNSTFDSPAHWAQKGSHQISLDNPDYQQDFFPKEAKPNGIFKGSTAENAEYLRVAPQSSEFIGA
Epidermal growth factor receptor (Homo sapiens, UniProt P00533, L858R/T790M), sequence (P00533 25-1210 T790M/L858R limits assumed): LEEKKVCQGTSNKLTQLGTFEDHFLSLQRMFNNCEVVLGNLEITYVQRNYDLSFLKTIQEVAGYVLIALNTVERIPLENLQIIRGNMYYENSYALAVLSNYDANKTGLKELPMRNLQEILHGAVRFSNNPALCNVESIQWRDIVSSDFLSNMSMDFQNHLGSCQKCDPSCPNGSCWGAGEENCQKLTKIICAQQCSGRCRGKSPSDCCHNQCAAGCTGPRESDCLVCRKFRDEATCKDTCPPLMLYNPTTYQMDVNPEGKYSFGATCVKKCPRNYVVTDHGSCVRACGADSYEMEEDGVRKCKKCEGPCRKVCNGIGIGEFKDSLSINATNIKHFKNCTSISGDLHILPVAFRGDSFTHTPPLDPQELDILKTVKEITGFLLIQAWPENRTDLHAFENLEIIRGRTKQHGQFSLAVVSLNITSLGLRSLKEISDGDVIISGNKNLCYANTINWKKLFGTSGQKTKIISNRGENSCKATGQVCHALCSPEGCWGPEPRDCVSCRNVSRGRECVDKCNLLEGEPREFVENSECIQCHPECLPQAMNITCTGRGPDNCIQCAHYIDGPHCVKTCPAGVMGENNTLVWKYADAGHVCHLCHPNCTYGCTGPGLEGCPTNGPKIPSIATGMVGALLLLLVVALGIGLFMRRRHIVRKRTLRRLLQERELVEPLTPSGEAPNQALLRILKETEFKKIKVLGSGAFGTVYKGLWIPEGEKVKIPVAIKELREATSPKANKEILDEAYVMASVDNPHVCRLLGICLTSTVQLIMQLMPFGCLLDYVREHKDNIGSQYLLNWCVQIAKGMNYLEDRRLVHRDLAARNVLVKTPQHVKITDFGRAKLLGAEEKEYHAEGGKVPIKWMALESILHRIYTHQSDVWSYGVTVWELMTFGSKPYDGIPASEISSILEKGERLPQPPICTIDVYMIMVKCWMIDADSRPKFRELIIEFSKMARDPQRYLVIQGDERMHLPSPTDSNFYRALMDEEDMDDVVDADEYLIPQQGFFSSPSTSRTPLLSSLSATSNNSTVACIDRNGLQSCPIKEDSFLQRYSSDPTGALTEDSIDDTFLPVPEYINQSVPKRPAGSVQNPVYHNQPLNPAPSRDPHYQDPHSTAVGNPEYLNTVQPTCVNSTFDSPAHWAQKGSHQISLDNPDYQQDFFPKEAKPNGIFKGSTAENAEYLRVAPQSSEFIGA
Tyrosine-protein kinase ABL1 (Homo sapiens), sequence (P00519 whole entry): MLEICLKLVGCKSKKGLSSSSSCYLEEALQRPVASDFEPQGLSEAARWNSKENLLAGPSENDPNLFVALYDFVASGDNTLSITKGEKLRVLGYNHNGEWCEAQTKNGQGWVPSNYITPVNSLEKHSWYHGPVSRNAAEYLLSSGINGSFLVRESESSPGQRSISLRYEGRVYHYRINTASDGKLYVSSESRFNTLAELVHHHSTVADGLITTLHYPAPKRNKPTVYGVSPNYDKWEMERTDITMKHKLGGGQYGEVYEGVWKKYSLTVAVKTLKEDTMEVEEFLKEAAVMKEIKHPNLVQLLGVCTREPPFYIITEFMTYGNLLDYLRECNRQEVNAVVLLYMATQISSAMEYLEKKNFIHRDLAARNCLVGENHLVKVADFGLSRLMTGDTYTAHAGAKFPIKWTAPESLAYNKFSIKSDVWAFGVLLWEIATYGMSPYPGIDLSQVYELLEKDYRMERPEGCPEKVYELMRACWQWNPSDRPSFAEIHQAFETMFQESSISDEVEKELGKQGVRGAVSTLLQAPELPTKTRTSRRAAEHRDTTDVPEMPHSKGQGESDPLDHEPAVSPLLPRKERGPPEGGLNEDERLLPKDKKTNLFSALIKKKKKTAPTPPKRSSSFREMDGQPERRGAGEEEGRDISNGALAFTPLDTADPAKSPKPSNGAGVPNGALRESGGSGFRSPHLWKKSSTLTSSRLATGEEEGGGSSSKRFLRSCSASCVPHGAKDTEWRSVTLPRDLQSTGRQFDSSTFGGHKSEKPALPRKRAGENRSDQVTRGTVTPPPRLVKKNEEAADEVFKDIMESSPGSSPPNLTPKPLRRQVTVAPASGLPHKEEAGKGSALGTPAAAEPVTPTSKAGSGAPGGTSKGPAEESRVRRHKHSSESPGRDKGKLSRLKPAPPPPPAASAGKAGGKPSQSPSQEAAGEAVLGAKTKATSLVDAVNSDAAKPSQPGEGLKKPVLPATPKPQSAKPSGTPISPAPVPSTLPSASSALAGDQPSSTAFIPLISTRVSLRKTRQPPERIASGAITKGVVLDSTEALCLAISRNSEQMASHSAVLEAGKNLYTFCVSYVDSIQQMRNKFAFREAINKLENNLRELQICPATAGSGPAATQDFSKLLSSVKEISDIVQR
Proto-oncogene tyrosine-protein kinase Src (Homo sapiens), sequence (P12931 2-536 limits assumed): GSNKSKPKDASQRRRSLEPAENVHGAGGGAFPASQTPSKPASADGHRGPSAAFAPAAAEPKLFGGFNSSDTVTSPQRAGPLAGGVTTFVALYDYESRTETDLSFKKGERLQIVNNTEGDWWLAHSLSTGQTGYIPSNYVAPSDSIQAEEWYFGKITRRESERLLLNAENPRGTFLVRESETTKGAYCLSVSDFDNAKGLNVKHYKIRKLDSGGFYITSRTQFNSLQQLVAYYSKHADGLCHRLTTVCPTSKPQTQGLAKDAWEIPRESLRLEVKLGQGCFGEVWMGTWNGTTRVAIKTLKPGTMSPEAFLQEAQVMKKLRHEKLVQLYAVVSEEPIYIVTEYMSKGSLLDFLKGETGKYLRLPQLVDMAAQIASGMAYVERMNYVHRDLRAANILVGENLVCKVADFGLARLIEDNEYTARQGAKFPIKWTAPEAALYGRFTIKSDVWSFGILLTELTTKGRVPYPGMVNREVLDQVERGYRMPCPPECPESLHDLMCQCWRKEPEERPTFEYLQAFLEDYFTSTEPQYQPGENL
Mast/stem cell growth factor receptor Kit (Homo sapiens), sequence (P10721 whole entry): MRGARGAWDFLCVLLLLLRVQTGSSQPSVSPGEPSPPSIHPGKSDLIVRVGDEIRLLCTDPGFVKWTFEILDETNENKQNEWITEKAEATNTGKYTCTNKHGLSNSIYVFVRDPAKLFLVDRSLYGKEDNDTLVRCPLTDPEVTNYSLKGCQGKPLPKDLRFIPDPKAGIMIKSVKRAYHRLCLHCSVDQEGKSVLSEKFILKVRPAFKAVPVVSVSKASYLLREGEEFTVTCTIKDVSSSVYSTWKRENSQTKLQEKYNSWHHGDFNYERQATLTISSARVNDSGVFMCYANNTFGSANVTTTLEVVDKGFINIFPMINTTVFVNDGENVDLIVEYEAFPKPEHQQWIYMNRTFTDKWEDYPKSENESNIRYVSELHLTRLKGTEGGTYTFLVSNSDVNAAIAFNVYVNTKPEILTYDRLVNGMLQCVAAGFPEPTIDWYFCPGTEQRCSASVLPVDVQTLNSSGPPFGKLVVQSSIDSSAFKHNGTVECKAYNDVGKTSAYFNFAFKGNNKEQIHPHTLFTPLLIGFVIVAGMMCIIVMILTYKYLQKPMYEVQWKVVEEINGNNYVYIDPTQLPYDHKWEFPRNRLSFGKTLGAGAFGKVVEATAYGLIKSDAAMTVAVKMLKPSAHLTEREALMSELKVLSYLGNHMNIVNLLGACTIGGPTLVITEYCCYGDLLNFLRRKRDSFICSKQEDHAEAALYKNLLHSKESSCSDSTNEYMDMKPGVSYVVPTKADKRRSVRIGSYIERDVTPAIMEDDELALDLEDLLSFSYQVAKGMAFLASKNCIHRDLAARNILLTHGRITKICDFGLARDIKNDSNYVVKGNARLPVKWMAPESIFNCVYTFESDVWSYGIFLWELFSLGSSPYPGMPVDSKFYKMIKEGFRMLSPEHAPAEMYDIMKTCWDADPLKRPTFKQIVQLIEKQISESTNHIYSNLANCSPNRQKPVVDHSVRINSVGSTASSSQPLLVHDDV

With `O=C(NO)c1sccc1Nc1nc(Nc2ccc(N3CCOCC3)cc2)ncc1Cl` as the compound, how does the inhibition [1] read?
Its inhibition is under 70%.

And the inhibition [2]?
The inhibition was under 70%.

What about the IC50 at 72 h [3] of the same compound?
Its IC50 at 72 h is 24600 nM.

What about the Activity [4] of the same compound?
The Activity was 3.41%.

What about the pIC50 [5] of the same compound?
The pIC50 was 6.77.

And the inhibition [6]?
The inhibition was under 70%.

And the inhibition [7]?
Its inhibition is under 70%.

What about the Activity [8] of the same compound?
Its Activity is “Non-Toxic”.

What about the inhibition [9] of the same compound?
Its inhibition is “Active”.

And the Activity [10]?
The Activity was 6.53%.

What about the inhibition [11] of the same compound?
The inhibition was “Active”.

And the pIC50 [12]?
Its pIC50 is 7.36.

What about the Activity [13] of the same compound?
The Activity was 46.13%.

What about the Activity [14] of the same compound?
Its Activity is 11.4%.

What about the Activity [15] of the same compound?
Its Activity is 44.23%.

What about the inhibition [16] of the same compound?
The inhibition was “Active”.

What about the viability at 0.01 µM [17] of the same compound?
Its viability at 0.01 µM is 77.6%.

What about the Activity [18] of the same compound?
The Activity was “Dose-Dependent Effect”.

What about the Activity [19] of the same compound?
The Activity was “Dose-Dependent Effect”.

What about the inhibition [20] of the same compound?
Its inhibition is under 70%.

What about the inhibition [21] of the same compound?
The inhibition was “Active”.

And the Activity [22]?
Its Activity is 66.03%.

And the pIC50 [23]?
Its pIC50 is 7.79.

What about the inhibition [24] of the same compound?
Its inhibition is under 70%.

What about the Activity [25] of the same compound?
The Activity was 19.06%.

What about the inhibition [26] of the same compound?
The inhibition was under 70%.

And the Activity [27]?
The Activity was 9.96%.

What about the Activity [28] of the same compound?
Its Activity is 6.5%.

And the inhibition [29]?
Its inhibition is under 70%.

And the pIC50 [30]?
Its pIC50 is 6.67.
